Data as given in US11254668B2, “Pyrazolo[1,5-A]pyrazin-4-yl and related derivatives” (Pfizer Inc., priority 2017, dated 2022).
Read-outs that look alike come from different tables or passages of the source.

How the values were obtained:
Type in all cases: biochemical
TYK2 = TYK2 (Homo sapiens (Human), UniProt P29597); assay: JAK Caliper Enzyme Assay at 1 mM ATP, TYK2
Experimental: (§1) Compounds of the invention were evaluated by in vitro methods to determine their respective ability to inhibit the JAK kinases (TYK2, JAK1, JAK2, JAK3).
(§2) The human JAK inhibitory activity was determined by using a microfluidic assay to monitor phosphorylation of a synthetic peptide by the recombinant human kinase domain of each of the four members of the JAK family, JAK1, JAK2, JAK3 and TYK2. […] Each assay condition was optimized for enzyme concentration and room temperature incubation time to obtain a conversion rate of 20% to 30% phosphorylated peptide product. Reactions were terminated by the addition of stop buffer containing EDTA. Utilizing the LabChip 3000 mobility shift technology (Caliper Life Science), each assay reaction was sampled to determine the level of phosphorylation. This technology is separation-based, allowing direct detection of fluorescently labeled substrates and products. Separations are controlled by a combination of vacuum pressure and electric field strength optimized for each peptide substrate.
(§3) JAK Caliper Enzyme Assay at 1mM ATP
(§4) Compounds were added to a 384-well plate.
(§5) The data was collected using the HTS Well Analyzer software from Caliper Life Sciences. The data output for data analysis is the percent product converted calculated on peak height (Equation 1). % product converted=100*((product)/(product+substrate)) Equation 1: […]
(§6) The percent effect at each compound concentration was calculated based on the positive and negative control well contained within each assay plate (Equation 2). […] The negative control wells contained DMSO alone (at the same concentration as the compound wells) that was used to set the baseline activity in the assay (i.e., uninhibited JAK1, JAK2, JAK3 or TYK2). % effect=100*([…](positive control-negative control)) Equation 2: […]
(§7) The percent effect was plotted against the compound concentration compound.

JAK1 = JAK1 (Homo sapiens (Human), UniProt P23458); assay: JAK Caliper Enzyme Assay at 1 mM ATP, JAK1
JAK1, sequence (P23458 875-1153): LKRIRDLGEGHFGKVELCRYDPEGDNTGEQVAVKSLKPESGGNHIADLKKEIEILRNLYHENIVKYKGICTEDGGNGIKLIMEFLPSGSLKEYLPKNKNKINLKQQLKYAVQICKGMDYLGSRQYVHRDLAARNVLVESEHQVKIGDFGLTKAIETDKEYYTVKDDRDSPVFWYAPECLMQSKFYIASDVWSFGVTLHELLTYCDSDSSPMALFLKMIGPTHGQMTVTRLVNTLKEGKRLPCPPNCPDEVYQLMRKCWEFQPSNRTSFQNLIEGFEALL
Experimental: as §1, §2, §3, §4, §5, §6, §7

JAK3 = JAK3 (Homo sapiens (Human), UniProt P52333); assay: JAK Caliper Enzyme Assay at 1 mM ATP, JAK3
JAK3, sequence (P52333 822-1111): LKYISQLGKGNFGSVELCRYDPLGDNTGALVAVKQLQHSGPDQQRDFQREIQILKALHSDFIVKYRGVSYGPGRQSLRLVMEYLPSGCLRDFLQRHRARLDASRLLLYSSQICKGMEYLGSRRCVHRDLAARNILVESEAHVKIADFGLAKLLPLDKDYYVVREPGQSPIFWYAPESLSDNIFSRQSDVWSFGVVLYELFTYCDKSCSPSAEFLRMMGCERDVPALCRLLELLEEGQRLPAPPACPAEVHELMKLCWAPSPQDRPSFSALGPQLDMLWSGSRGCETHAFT
Experimental: as §1, §2, §3, §4, §5, §6, §7

TYK2, sequence (P29597 897-1176): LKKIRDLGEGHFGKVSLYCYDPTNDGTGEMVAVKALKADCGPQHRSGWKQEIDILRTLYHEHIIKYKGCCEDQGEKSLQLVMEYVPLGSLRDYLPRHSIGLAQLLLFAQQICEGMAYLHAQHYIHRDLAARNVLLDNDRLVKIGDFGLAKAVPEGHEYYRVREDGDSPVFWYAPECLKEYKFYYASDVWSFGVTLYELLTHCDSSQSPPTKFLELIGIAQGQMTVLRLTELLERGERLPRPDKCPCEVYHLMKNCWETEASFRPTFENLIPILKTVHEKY

Row | SMILES | IC50 (TYK2) | IC50 (JAK1) | IC50 (JAK3) | IC50 (TYK2; JAK Caliper enzyme assay) | IC50 (JAK1; JAK Caliper enzyme assay) | IC50 (JAK3; JAK Caliper enzyme assay)
1 | N#CCC1(n2ccc(-c3nc(-c4ncc[nH]4)cc4ncccc34)n2)CN(CC(F)(F)F)C1 [Example 148, [3-{3-[7-(1H-imidazol-2-yl)-1,6-naphthyridin-5-yl]-1H-pyrazol-1-yl}-1-(2,2,2-trifluoroethyl)azetidin-3-yl]acetonitrile] | 235 nM | 8800 nM | > 10000 nM | – | – | –
2 | Cn1nc(-c2cc3ncccc3c(-c3ccn([C@]4(CC#N)C[C@H](C#N)C4)n3)n2)cc1CO [Example 63, cis-3-(cyanomethyl)-3-(3-{7-[5-(hydroxymethyl)-1-methyl-1H-pyrazol-3-yl]-1,6-naphthyridin-5-yl}-1H-pyrazol-1-yl)cyclobutanecarbonitrile] | 17 nM | 672 nM | 6550 nM | – | – | –
3 | CS(=O)(=O)N1CC(CC#N)(n2ncc(-c3cc(-c4c[nH]c5nccc-5c4)cc4ncccc34)n2)C1 [Example 415, [1-(methylsulfonyl)-3-{4-[7-(7H-pyrrolo[2,3-b]pyridin-5-yl)quinolin-5-yl]-2H-1,2,3-triazol-2-yl}azetidin-3-yl]acetonitrile] | – | – | – | 1090 nM | > 10000 nM | > 10000 nM
4 | N#CCC1(n2ccc(-c3nc(-c4cnn(C5CCCCO5)n4)cc4ncccc34)n2)CN(CC(F)(F)F)C1 (stereo not shown) [Example 155, [3-(3-{7-[2-(tetrahydro-2H-pyran-2-yl)-2H-1,2,3-triazol-4-yl]-1,6-naphthyridin-5-yl}-1H-pyrazol-1-yl)-1-(2,2,2-trifluoroethyl)azetidin-3-yl]acetonitrile] | 312 nM | 6460 nM | > 10000 nM | – | – | –
5 | CS(=O)(=O)N1CC(CC#N)(n2ccc(-c3nc(-c4ccnc(O)c4)cc4ncccc34)n2)C1 [Example 186, [3-{3-[7-(2-hydroxypyridin-4-yl)-1,6-naphthyridin-5-yl]-1H-pyrazol-1-yl}-1-(methylsulfonyl)azetidin-3-yl]acetonitrile] | 74 nM | 4860 nM | > 10000 nM | – | – | –
6 | Cn1nc(-c2cc3ncccc3c(-c3ccn([C@]4(CC#N)C[C@H](C#N)C4)n3)n2)cc1N [Example 66, cis-3-{3-[7-(5-amino-1-methyl-1H-pyrazol-3-yl)-1,6-naphthyridin-5-yl]-1H-pyrazol-1-yl}-3-(cyanomethyl)cyclobutanecarbonitrile] | 7 nM | 155 nM | 2500 nM | – | – | –
7 | Cn1cc(-c2cc3ncccc3c(-c3ccn(C4(CC#N)CN(CC5CC5)C4)n3)n2)cn1 [Example 101, [1-(cyclopropylmethyl)-3-{3-[7-(1-methyl-1H-pyrazol-4-yl)-1,6-naphthyridin-5-yl]-1H-pyrazol-1-yl}azetidin-3-yl]acetonitrile] | 73 nM | 2040 nM | > 10000 nM | – | – | –
8 | CS(=O)(=O)N1CC(CC#N)(n2ccc(-c3nc(-c4cccc(O)n4)cc4ncccc34)n2)C1 [Example 180, [3-{3-[7-(6-hydroxypyridin-2-yl)-1,6-naphthyridin-5-yl]-1H-pyrazol-1-yl}-1-(methylsulfonyl)azetidin-3-yl]acetonitrile] | 42 nM | 3740 nM | > 10000 nM | – | – | –
9 | N#CCC1(n2ccc(-c3nc(-c4ccnnc4)cc4ncccc34)n2)CN(CC(F)(F)F)C1 [Example 233, [3-{3-[7-(pyridazin-4-yl)-1,6-naphthyridin-5-yl]-1H-pyrazol-1-yl}-1-(2,2,2-trifluoroethyl)azetidin-3-yl]acetonitrile] | 347 nM | 9580 nM | > 10000 nM | – | – | –
10 | N#CCC1(n2ccc(-c3nc(-c4cccnc4)cc4ncccc34)n2)CN(CC(F)(F)F)C1 [Example 171, [3-{3-[7-(pyridin-3-yl)-1,6-naphthyridin-5-yl]-1H-pyrazol-1-yl}-1-(2,2,2-trifluoroethyl)azetidin-3-yl]acetonitrile] | 66 nM | 2730 nM | > 10000 nM | – | – | –
11 | Cn1nc(-c2cc3ncccc3c(-c3ccn([C@]4(CC#N)C[C@@H](C#N)C4)n3)n2)cc1CO [Example 62, trans-3-(cyanomethyl)-3-(3-{7-[5-(hydroxymethyl)-1-methyl-1H-pyrazol-3-yl]-1,6-naphthyridin-5-yl}-1H-pyrazol-1-yl)cyclobutanecarbonitrile] | 153 nM | > 10000 nM | > 10000 nM | – | – | –
12 | N#CCC1(n2ncc(-c3cc(-c4cc[nH]n4)cc4ncccc34)n2)CN(S(N)(=O)=O)C1 [Example 300, 3-(cyanomethyl)-3-{4-[7-(1H-pyrazol-3-yl)quinolin-5-yl]-2H-1,2,3-triazol-2-yl}azetidine-1-sulfonamide] | 16 nM | 291 nM | 3320 nM | – | – | –
13 | Cn1nc(-c2cc3ncccc3c(-c3ccn([C@]4(CC#N)C[C@@H](C#N)C4)n3)n2)cc1N [Example 65, trans-3-{3-[7-(5-amino-1-methyl-1H-pyrazol-3-yl)-1,6-naphthyridin-5-yl]-1H-pyrazol-1-yl}-3-(cyanomethyl)cyclobutanecarbonitrile] | 18 nM | 1590 nM | > 10000 nM | – | – | –
14 | Cn1ncc(-c2cc(-c3cnn([C@]4(CC#N)C[C@@H](C#N)C4)n3)c3cccnc3c2)c1CO [Example 328, trans-3-(cyanomethyl)-3-(4-{7-[5-(hydroxymethyl)-1-methyl-1H-pyrazol-4-yl]quinolin-5-yl}-2H-1,2,3-triazol-2-yl)cyclobutanecarbonitrile] | 1290 nM | > 10000 nM | > 10000 nM | – | – | –
15 | COc1nc(-c2cc(-c3cnn([C@]4(CC#N)C[C@H](C#N)C4)c3)n3ccnc3c2)ccc1N [Example 471, cis-3-{4-[7-(5-amino-6-methoxypyridin-2-yl)imidazo[1,2-a]pyridin-5-yl]-1H-pyrazol-1-yl}-3-(cyanomethyl)cyclobutanecarbonitrile] | – | – | – | 33 nM | 631 nM | > 10000 nM
16 | CCn1cc(-c2cc3ncccc3c(-c3ccn([C@]4(CC#N)C[C@@H](C#N)C4)n3)n2)cn1 [Example 113, trans-3-(cyanomethyl)-3-{3-[7-(1-ethyl-1H-pyrazol-4-yl)-1,6-naphthyridin-5-yl]-1H-pyrazol-1-yl}cyclobutanecarbonitrile] | 22 nM | 409 nM | 8970 nM | – | – | –
17 | N#CC[C@]1(n2ccc(-c3nc(-c4ccc(N)c(C(N)=O)n4)cc4ncccc34)n2)C[C@@H](C#N)C1 [Example 225, 3-amino-6-(5-{1-[trans-3-cyano-1-(cyanomethyl)cyclobutyl]-1H-pyrazol-3-yl}-1,6-naphthyridin-7-yl)pyridine-2-carboxamide] | 9 nM | 215 nM | > 10000 nM | – | – | –
18 | N#CCC1(n2ncc(-c3cc(-c4cccc(C(N)=O)c4)cc4ncccc34)n2)CC(C#N)C1 (stereo not drawn) [Example 431, 3-(5-{2-[cis-3-cyano-1-(cyanomethyl)cyclobutyl]-2H-1,2,3-triazol-4-yl}quinolin-7-yl)benzamide] | – | – | – | – | 572 nM | > 10000 nM
19 | CS(=O)(=O)Nc1ccc(-c2cc3ncccc3c(-c3ccn([C@]4(CC#N)C[C@@H](C#N)C4)n3)n2)cc1 [Example 256, N-[4-(5-{1-[cis-3-cyano-1-(cyanomethyl)cyclobutyl]-1H-pyrazol-3-yl}-1,6-naphthyridin-7-yl)phenyl]methanesulfonamide] | 11 nM | 12 nM | 454 nM | – | – | –
20 | CCn1cc(-c2cc3ncccc3c(-c3ccn(C4(CC#N)CC(C#N)C4)n3)n2)cn1 (stereo not drawn) [Example 112, cis-3-(cyanomethyl)-3-{3-[7-(1-ethyl-1H-pyrazol-4-yl)-1,6-naphthyridin-5-yl]-1H-pyrazol-1-yl}cyclobutanecarbonitrile] | 12 nM | 43 nM | 634 nM | – | – | –
21 | Cn1nccc1C1CC(CC#N)(n2ccc(-c3nc(-c4cn[nH]c4)cc4ncccc34)n2)C1 (stereo not drawn) [Example 86, [cis-3-(1-methyl-1H-pyrazol-5-yl)-1-{3-[7-(1H-pyrazol-4-yl)-1,6-naphthyridin-5-yl]-1H-pyrazol-1-yl}cyclobutyl]acetonitrile] | 430 nM | 2410 nM | > 10000 nM | – | – | –
22 | CS(=O)(=O)N1CC(CC#N)(n2ncc(-c3cc(-c4cc[nH]n4)cc4ncccc34)n2)C1 [Example 298, [1-(methylsulfonyl)-3-{4-[7-(1H-pyrazol-3-yl)quinolin-5-yl]-2H-1,2,3-triazol-2-yl}azetidin-3-yl]acetonitrile] | 23 nM | 594 nM | > 10000 nM | – | – | –
23 | CC(=O)N(C)C1CC(CC#N)(n2ccc(-c3nc(-c4cc[nH]n4)cc4ncccc34)n2)C1 (stereo not drawn) [Example 33, N-[trans-3-(cyanomethyl)-3-{3-[7-(1H-pyrazol-3-yl)-1,6-naphthyridin-5-yl]-pyrazol-1-yl}cyclobutyl]-N-methylacetamide] | 850 nM | 5700 nM | > 10000 nM | – | – | –
24 | N#CC[C@]1(n2ncc(-c3cc(-c4cccc(C(N)=O)c4)cc4ncccc34)n2)C[C@@H](C#N)C1 [Example 432, 3-(5-{2-[trans-3-cyano-1-(cyanomethyl)cyclobutyl]-2H-1,2,3-triazol-4-yl}quinolin-7-yl)benzamide] | – | – | – | – | 3900 nM | > 10000 nM
